From patent US7893288B2, “Poly-halogenated triazapentadiene compositions” (Board of Regents, The University of Texas System, priority 2007, dated 2011)
Where “and” joins values, the source holds several entries; their conditions need not be identical. Identical values can stand only once.

Columns and labels:
Format in all cases: cell-based
[1] = test system: Staphylococcus aureus (ATCC 25923); assay: Minimum inhibitory concentration in LB broth, S. aureus; conditions: for Relative to AgNO3: efficacy per mole from MIC values
Escherichia coli HB101 [2] = assay: Disk sensitivity test (modified Kirby-Bauer), E. coli;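 further: filter disk loaded with compound in DMSO laid on an LB agar bacterial lawn, kept overnight at 37 °C, then the inhibition zone around the disk is measured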
Procedure: (§1) Filter disks were provided as sterile filter paper (about 6 mm in diameter) and spotted with 20 μL of a selected compound. Each compound was initially dissolved in dimethylsulfoxide (DMSO); any subsequent dilutions were also made in DMSO. Each filter was placed on an LB agar plate spread with 100 μL of a bacterial culture that had been grown overnight in suitable LB broth. Plates were incubated overnight at 37° C., after which, the extent of growth inhibition around each filter disk was measured. Bacterial strains included Staphylococcus aureus (ATCC 25923), Pseudomonas aeruginosa PAO1, Bacillus subtilis W168 and Escherichia coli HB101. […] The latter two strains are non-pathogenic Gram-positive and Gram-negative bacterial strains, respectively.

[3] = test system: Pseudomonas aeruginosa PAO1; assay: Disk sensitivity test (modified Kirby-Bauer), P. aeruginosa;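 further: Compound-loaded filter disks on LB agar lawns, DMSO as solvent, zone of inhibition around each disk read after overnight incubation at 37 °C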
Procedure: as §1

Escherichia coli HB101 [4] = assay: Minimum inhibitory concentration in LB broth, E. coli; conditions: for Relative to AgNO3: efficacy per mole from MIC values;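 on all read-outs here: broth dilution MIC, test compounds first taken up in DMSO, then serially diluted in LB medium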
Bacillus subtilis W168 [5] = assay: Disk sensitivity test (modified Kirby-Bauer), B. subtilis;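 further: Compound-loaded filter disks on LB agar plates seeded with a bacterial lawn, plates held overnight at 37 °C, then the clear zone around each disk measured, compounds in DMSO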
Procedure: as §1

Bacillus subtilis W168 [6] = assay: Minimum inhibitory concentration in LB broth, B. subtilis; conditions: for Relative to AgNO3: efficacy per mole from MIC values
[7] = test system: Staphylococcus aureus (ATCC 25923); assay: Disk sensitivity test (modified Kirby-Bauer), S. aureus;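 further: Compound-loaded filter disks on LB agar plates seeded with a confluent bacterial lawn, compound dissolved in DMSO, plates kept overnight at 37 °C, then inhibition zone around disk measured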
Procedure: as §1

[8] = test system: Gram positive and Gram negative bacteria; assay: Antimicrobial activity, summary of TABLES 16-18
Procedure: The new class of fluorinated triazapentadiene compounds with and without metal complexation as described herein were analyzed for antibacterial activity against several bacterial strains (both Gram positive and Gram negative). Methods for antimicrobial analysis included a modified Kirby-Bauer method and a determination of their minimum inhibitory concentrations. In brief, the modified Kirby-Bauer method relied on placement of a filter disk impregnated with a desired compound on a solid growth medium. Bacteria were grown to a confluent lawn and the extent of growth inhibition was measured (e.g., as an extent/percentage of a clear zone on the disk and/or solid medium).
For MIC assessment, compounds were initially dissolved in DMSO and serial dilutions of soluble compounds were made in LB broth.

[9] = test system: Pseudomonas aeruginosa PAO1; assay: Minimum inhibitory concentration in LB broth, P. aeruginosa; conditions: for Relative to AgNO3: efficacy per mole from MIC values
[10] = 1.00 × 10^0 μg/ml (printed 5.9 × 10^−6 mM)
[11] = 1.00 × 10^1 μg/ml (5.9 × 10^−5 mM)
[12] = 1.00 × 10^2 μg/ml (5.9 × 10^−4 mM [sic])
[13] = 1.00 × 10^3 μg/ml (printed 5.9 × 10^−3 mM)
[14] = 1.00 × 10^4 μg/ml (printed 5.9 × 10^−2 mM)

Fc1c(F)c(F)c(N=C(N=C(Nc2c(F)c(F)c(F)c(F)c2F)C(F)(F)C(F)(F)C(F)(F)F)C(F)(F)C(F)(F)C(F)(F)F)c(F)c1F [[N{(C3F7)C(C6F5)N}2]H]
MIC [1]: 1.57 μg/ml and 2.12 × 10^−3 mM
Relative to AgNO3 [1]: 34.71
Diameter of the zone of growth inhibition (Escherichia coli HB101 [2]; 5.7 × 10^0 mM): 9.0 mm
Diameter of the zone of growth inhibition (Escherichia coli HB101 [2]; 5.7 × 10^1 mM): 9.5 mm
Diameter of the zone of growth inhibition (Escherichia coli HB101 [2]; 5.7 × 10^−1 mM): 9.0 mm
Diameter of the zone of growth inhibition (Escherichia coli HB101 [2]; 5.7 × 10^−2 mM): 8.5 mm
Diameter of the zone of growth inhibition (Escherichia coli HB101 [2]; 5.7 × 10^−3 mM): 7.0 mm
Diameter of the zone of growth inhibition ([3]; 5.7 × 10^0 mM): 8.0 mm
Diameter of the zone of growth inhibition ([3]; 5.7 × 10^1 mM): 9.0 mm
Diameter of the zone of growth inhibition ([3]; 5.7 × 10^−1 mM): 8.0 mm
Diameter of the zone of growth inhibition ([3]; 5.7 × 10^−2 mM): 8.0 mm
Diameter of the zone of growth inhibition ([3]; 5.7 × 10^−3 mM): 7.0 mm
MIC (Escherichia coli HB101 [4]): 2643.48 μg/ml and 3.58 mM
Relative to AgNO3 (Escherichia coli HB101 [4]): 1.65 × 10^−2
Diameter of the zone of growth inhibition (Bacillus subtilis W168 [5]; 5.7 × 10^0 mM): 39.0 mm
Diameter of the zone of growth inhibition (Bacillus subtilis W168 [5]; 5.7 × 10^1 mM): 71.0 mm
Diameter of the zone of growth inhibition (Bacillus subtilis W168 [5]; 5.7 × 10^−1 mM): 47.0 mm
Diameter of the zone of growth inhibition (Bacillus subtilis W168 [5]; 5.7 × 10^−2 mM): 22.0 mm
Diameter of the zone of growth inhibition (Bacillus subtilis W168 [5]; 5.7 × 10^−3 mM): 10.0 mm
Diameter of the zone of growth inhibition (Bacillus subtilis W168 [5]; 5.7 × 10^−4 mM): 8.0 mm
Diameter of the zone of growth inhibition (Bacillus subtilis W168 [5]; 5.7 × 10^−5 mM): 6.0 (NZ) mm
Diameter of the zone of growth inhibition (Bacillus subtilis W168 [5]; 5.7 × 10^−6 mM): 6.0 (NZ) mm
Diameter of the zone of growth inhibition (Bacillus subtilis W168 [5]; 5.7 × 10^−7 mM): 6.0 (NZ) mm
MIC (Bacillus subtilis W168 [6]): 1.57 μg/ml and 2.12 × 10^−3 mM
Relative to AgNO3 (Bacillus subtilis W168 [6]): 69.34
Diameter of the zone of growth inhibition ([7]; 5.7 × 10^0 mM): 37.5 mm
Diameter of the zone of growth inhibition ([7]; 5.7 × 10^1 mM): 75.0 mm
Diameter of the zone of growth inhibition ([7]; 5.7 × 10^−1 mM): 40.0 mm
Diameter of the zone of growth inhibition ([7]; 5.7 × 10^−2 mM): 19.0 mm
Diameter of the zone of growth inhibition ([7]; 5.7 × 10^−3 mM): 9.0 mm
Diameter of the zone of growth inhibition ([7]; 5.7 × 10^−4 mM): 6.0 (NZ) mm
Diameter of the zone of growth inhibition ([7]; 5.7 × 10^−5 mM): 6.0 (NZ) mm
Diameter of the zone of growth inhibition ([7]; 5.7 × 10^−6 mM): 6.0 (NZ) mm
Diameter of the zone of growth inhibition ([7]; 5.7 × 10^−7 mM): 6.0 (NZ) mm
antimicrobial activity (in words) [8]: Effective
MIC [9]: 2643.48 μg/ml and 3.58 mM
Relative to AgNO3 [9]: 5.14 × 10^−3

FC(F)(F)C(F)(F)C(F)(F)C(=Nc1c(Cl)cccc1Cl)N=C(Nc1c(Cl)cccc1Cl)C(F)(F)C(F)(F)C(F)(F)F [[N{(C3F7)C(2,6-Cl2C6H3)N}2]H]
MIC [1]: 7.80 μg/ml and 2.12 × 10^−3 mM
Relative to AgNO3 [1]: 6.57
Diameter of the zone of growth inhibition (Escherichia coli HB101 [2]; 5.7 × 10^0 mM): 8.0 mm
Diameter of the zone of growth inhibition (Escherichia coli HB101 [2]; 5.7 × 10^1 mM): 9.0 mm
Diameter of the zone of growth inhibition (Escherichia coli HB101 [2]; 5.7 × 10^−1 mM): 8.0 mm
Diameter of the zone of growth inhibition (Escherichia coli HB101 [2]; 5.7 × 10^−2 mM): 8.0 mm
Diameter of the zone of growth inhibition (Escherichia coli HB101 [2]; 5.7 × 10^−3 mM): 6.0 (NZ) mm
Diameter of the zone of growth inhibition ([3]; 5.7 × 10^0 mM): 8.0 mm
Diameter of the zone of growth inhibition ([3]; 5.7 × 10^1 mM): 9.0 mm
Diameter of the zone of growth inhibition ([3]; 5.7 × 10^−1 mM): 8.0 mm
Diameter of the zone of growth inhibition ([3]; 5.7 × 10^−2 mM): 8.0 mm
Diameter of the zone of growth inhibition ([3]; 5.7 × 10^−3 mM): 7.0 mm
MIC (Escherichia coli HB101 [4]): >16671.80 μg/ml and >23.92 mM
Relative to AgNO3 (Escherichia coli HB101 [4]): <2.46 × 10^−3
Diameter of the zone of growth inhibition (Bacillus subtilis W168 [5]; 5.7 × 10^0 mM): 19.0 mm
Diameter of the zone of growth inhibition (Bacillus subtilis W168 [5]; 5.7 × 10^1 mM): 21.0 mm
Diameter of the zone of growth inhibition (Bacillus subtilis W168 [5]; 5.7 × 10^−1 mM): 18.5 mm
Diameter of the zone of growth inhibition (Bacillus subtilis W168 [5]; 5.7 × 10^−2 mM): 19.0 mm
Diameter of the zone of growth inhibition (Bacillus subtilis W168 [5]; 5.7 × 10^−3 mM): 13.0 mm
Diameter of the zone of growth inhibition (Bacillus subtilis W168 [5]; 5.7 × 10^−4 mM): 8.5 mm
Diameter of the zone of growth inhibition (Bacillus subtilis W168 [5]; 5.7 × 10^−5 mM): 7.0 mm
Diameter of the zone of growth inhibition (Bacillus subtilis W168 [5]; 5.7 × 10^−6 mM): 7.5 mm
Diameter of the zone of growth inhibition (Bacillus subtilis W168 [5]; 5.7 × 10^−7 mM): 6.0 (NZ) mm
MIC (Bacillus subtilis W168 [6]): 4.27 × 10^−1 μg/ml and 4.59 × 10^−4 mM
Relative to AgNO3 (Bacillus subtilis W168 [6]): 320.26
Diameter of the zone of growth inhibition ([7]; 5.7 × 10^0 mM): 20.0 mm
Diameter of the zone of growth inhibition ([7]; 5.7 × 10^1 mM): 13.0 mm
Diameter of the zone of growth inhibition ([7]; 5.7 × 10^−1 mM): 16.0 mm
Diameter of the zone of growth inhibition ([7]; 5.7 × 10^−2 mM): 15.0 mm
Diameter of the zone of growth inhibition ([7]; 5.7 × 10^−3 mM): 7.0 mm
Diameter of the zone of growth inhibition ([7]; 5.7 × 10^−4 mM): 7.0 mm
Diameter of the zone of growth inhibition ([7]; 5.7 × 10^−5 mM): 8.0 mm
Diameter of the zone of growth inhibition ([7]; 5.7 × 10^−6 mM): 6.0 (NZ) mm
Diameter of the zone of growth inhibition ([7]; 5.7 × 10^−7 mM): 6.0 (NZ) mm
antimicrobial activity (in words) [8]: Effective
MIC [9]: >16671.80 μg/ml and >23.92 mM
Relative to AgNO3 [9]: <7.69 × 10^−4

O=[N+]([O-])[O-].[Ag+] [AgNO3, reference compound]
MIC [1]: 12.50 μg/ml and 7.36 × 10^−2 mM
Relative to AgNO3 [1]: 1.00
Diameter of the zone of growth inhibition (Escherichia coli HB101 [2]; [10]): 7.0 mm
Diameter of the zone of growth inhibition (Escherichia coli HB101 [2]; [11]): 8.5 mm
Diameter of the zone of growth inhibition (Escherichia coli HB101 [2]; [12]): 13.0 mm
Diameter of the zone of growth inhibition (Escherichia coli HB101 [2]; [13]): 14.0 mm
Diameter of the zone of growth inhibition (Escherichia coli HB101 [2]; [14]): 15.0 mm
Diameter of the zone of growth inhibition [3, 10]: 6.0 (NZ) mm
Diameter of the zone of growth inhibition [3, 11]: 6.0 (NZ) mm
Diameter of the zone of growth inhibition [3, 12]: 9.5 mm
Diameter of the zone of growth inhibition [3, 13]: 12.5 mm
Diameter of the zone of growth inhibition [3, 14]: 16.0 mm
MIC (Escherichia coli HB101 [4]): 10.0 μg/ml and 5.89 × 10^−2 mM
Relative to AgNO3 (Escherichia coli HB101 [4]): 1.00
Diameter of the zone of growth inhibition (Bacillus subtilis W168 [5]; [10]): 9.0 mm
Diameter of the zone of growth inhibition (Bacillus subtilis W168 [5]; [11]): 9.5 mm
Diameter of the zone of growth inhibition (Bacillus subtilis W168 [5]; [12]): 13.0 mm
Diameter of the zone of growth inhibition (Bacillus subtilis W168 [5]; [13]): 13.0 mm
Diameter of the zone of growth inhibition (Bacillus subtilis W168 [5]; (printed 5.9 × 10^−2 mM)): 16.0 mm
MIC (Bacillus subtilis W168 [6]): 25.00 μg/ml and 1.47 × 10^−1 mM
Relative to AgNO3 (Bacillus subtilis W168 [6]): 1.00
Diameter of the zone of growth inhibition [7, 10]: 6.0 (NZ) mm
Diameter of the zone of growth inhibition [7, 11]: 7.0 mm
Diameter of the zone of growth inhibition [7, 12]: 8.5 mm
Diameter of the zone of growth inhibition [7, 13]: 9.0 mm
Diameter of the zone of growth inhibition [7, 14]: 10.5 mm
MIC [9]: 3.12 μg/ml and 1.84 × 10^−2 mM
Relative to AgNO3 [9]: 1.00
